Data from patent US20180333382A1, “PHARMACEUTICAL COMPOSITIONS COMPRISING DGLA AND USE OF SAME” (DS Biopharma Limited, priority 2017, published 2018).
“Also recorded” adds a separate entry of the source. Marks after values point to notes of the source that are not given here.

Assays:
[1] = Phase one study: safety and tolerability (TEAEs, vital signs, ECG); conditions: for tolerability: healthy volunteers
Description: Screening procedures were conducted for both parts one and two before the start of the study on Day −1 (Baseline) by evaluating the safety assessments.
Subjects were monitored throughout their confinement at the Phase 1 unit for adverse reactions to the study drug and/or procedures.
Safety analyses were performed on the safety population tabulated by treatment arm, cohort, and visit. All safety data were characterized by descriptive statistical tools. […] Evaluation of safety assessments was performed in a descriptive manner. Continuous variables were characterized by their mean, standard deviation (SD), median, minimum and maximum values; discrete variables were characterized by their absolute (frequency) and relative (percentage) distribution.

[2] = test system: patients with moderate to severe atopic dermatitis having high eosinophil levels; assay: Post hoc stratification of the phase II study: subgroup with high eosinophil > 0.3 × 10^9/L; assay type: in vivo, human; conditions: daily, 8 weeks
Description: (§1) Further to the randomized, double-blind, placebo-controlled, phase II study of Example 2 above, a post hoc stratification analysis was performed using the results of that study to assess the efficacy of orally administered DS107G (DGLA) to patients with moderate to severe atopic dermatitis having normal eosinophil levels of less than about 0.3×10^9/L compared to the same population receiving placebo and/or to the total study population. The primary objective of the post hoc stratification study was to compare the efficacy of orally administered DS107G capsules, versus placebo, in the treatment of adult patients with moderate to severe atopic dermatitis having normal eosinophil levels of less than about 0.3×10^9/L. The secondary objective was to compare the efficacy of orally administered DS107G capsules in the treatment of adult patients with moderate to severe atopic dermatitis having normal eosinophil levels of less than about 0.3×10^9/L versus the total study population. Unless stated otherwise, all elements of the post hoc stratification analysis were the same as those of the phase II study described in Example 2 above.
A comparison of the total study population (see column “DS107 Phase 2a I.T.T.”), patients having normal eosinophil levels, and patients having high eosinophil levels separated by patients who received DS107 or placebo is shown in Table 32 below.

[3] = test system: patients with moderate to severe atopic dermatitis having normal eosinophil levels; assay: Post hoc stratification of the phase II study by eosinophil level (normal <0.3×10^9/L); assay type: in vivo, human; conditions: for Percentage Change of BSA Levels From Baseline, Mean / Percentage Change of DLQI Scores From Baseline, Mean / Percentage Change of EASI Scores From Baseline, Mean / Percentage Change of IGA Scores From Baseline, Mean / Percentage Change of POEM Scores From Baseline, Mean / Percentage Change of SCORAD Levels From Baseline, Mean / Percentage Change of VAS Scores From Baseline, Mean: Normal Eosinophil Population
Description: as §1

[4] = Normal Eosinophil < 0.3 × 10^9/L, daily, 8 weeks
[5] = Normal Eosinophil < 0.3 × 10^9/L, daily, 8 weeks, LOCF
[6] = normal eosinophil levels, weeks 2, 4, 6, 8 and 10, vs placebo or total study population
[7] = patients having normal eosinophil levels
[8] = study population having normal eosinophil levels, oral, once daily, 8 weeks

In the case of `CCCCC/C=C\C/C=C\C/C=C\CCCCCCC(=O)O` [DS107G, Dihomo gamma linolenic acid], the tolerability ([1]; 2000- or 4000-mg once daily for 28 consecutive days) is reported as “tolerated well”, the subjects reporting diarrhea ([1]; 2000-mg group, 3/6) is reported as 50% and the subjects reporting diarrhea ([1]; 4000-mg group, 4/6) is reported as 66.7%. For the same molecule, the subjects reporting nausea ([1]; 4000-mg treatment group, 4/6, 10 events) was 66.7%, the deaths ([1]; multi-dose study) was “no deaths” and the “severe TEAEs” value ([1]; multiple dose) was “no severe TEAEs”. The “incidence of TEAEs” value ([1]; multiple dose, 11/12 active-treated subjects, total of 52 TEAEs) was 91.73%, the tolerability ([1]; single dose 500, 1000, 2000 or 4000 mg) was “well tolerated” and the “incidence of diarrhea (loose stool)” value ([1]; single dose, 5/24 active-treated subjects) was 20.8%. The “BSA Change from Baseline” value [2] was −14.9%, the “EASI Percentage Change from Baseline” value [2] was −20.1% and the “EASI-50 (%)” value [2] was 22.7%. For the same molecule, the “EASI-75 (%)” value [2] was 9.1%, the “IGA responder (%)” value [2] was 0% and the “Pruritus Percentage Change from Baseline” value [2] was −6.5%. For the same molecule, the “EASI-50 (%)” value [3, 4] was 60%, the “EASI-75 (%)” value [3, 4] was 40% and the “BSA Change from Baseline” value [3, 5] was −41% *. The “EASI Percentage Change from Baseline” value [3, 5] was −51% *, the “IGA responder (%)” value [3, 5] was 42% * and the “Pruritus Percentage Change from Baseline” value [3, 5] was −53% *. The “Percentage Change of BSA Levels From Baseline, Mean” value ([3]; Week 2) was −10.8%, the “Percentage Change of DLQI Scores From Baseline, Mean” value ([3]; Week 2) was −41.3% and the “Percentage Change of EASI Scores From Baseline, Mean” value ([3]; Week 2) was −20.7%. The “Percentage Change of IGA Scores From Baseline, Mean” value ([3]; Week 2) was −15.1%, the “Percentage Change of POEM Scores From Baseline, Mean” value ([3]; Week 2) was −41.8% and the “Percentage Change of SCORAD Levels From Baseline, Mean” value ([3]; Week 2) was −16.5%. The “Percentage Change of VAS Scores From Baseline, Mean” value ([3]; Week 2) was −29.8%, the “Percentage Change of BSA Levels From Baseline, Mean” value ([3]; Week 4) was −21.2% and the “Percentage Change of DLQI Scores From Baseline, Mean” value ([3]; Week 4) was −58.2%. For the same molecule, the “Percentage Change of EASI Scores From Baseline, Mean” value ([3]; Week 4) was −41.9%, the “Percentage Change of IGA Scores From Baseline, Mean” value ([3]; Week 4) was −28.8% and the “Percentage Change of POEM Scores From Baseline, Mean” value ([3]; Week 4) was −55.3%. The “Percentage Change of SCORAD Levels From Baseline, Mean” value ([3]; Week 4) was −34.8%, the “Percentage Change of VAS Scores From Baseline, Mean” value ([3]; Week 4) was −50.9% and the “Percentage Change of BSA Levels From Baseline, Mean” value ([3]; Week 8) was −41.0%. For the same molecule, the “Percentage Change of DLQI Scores From Baseline, Mean” value ([3]; Week 8) was −57.5%, the “Percentage Change of EASI Scores From Baseline, Mean” value ([3]; Week 8) was −51.1% and the “Percentage Change of IGA Scores From Baseline, Mean” value ([3]; Week 8) was −42.6%. The “Percentage Change of POEM Scores From Baseline, Mean” value ([3]; Week 8) was −53.1%, the “Percentage Change of SCORAD Levels From Baseline, Mean” value ([3]; Week 8) was −44.3% and the “Percentage Change of VAS Scores From Baseline, Mean” value ([3]; Week 8) was −52.7%. The “Percentage Change of BSA Levels From Baseline, Mean” value ([3]; Week 10) was −49.7%, the “Percentage Change of DLQI Scores From Baseline, Mean” value ([3]; Week 10) was −61.6% and the “Percentage Change of EASI Scores From Baseline, Mean” value ([3]; Week 10) was −59.6%. For the same molecule, the “Percentage Change of IGA Scores From Baseline, Mean” value ([3]; Week 10) was −46.2%, the “Percentage Change of POEM Scores From Baseline, Mean” value ([3]; Week 10) was −50.1% and the “Percentage Change of SCORAD Levels From Baseline, Mean” value ([3]; Week 10) was −47.1%. For the same molecule, the “Percentage Change of VAS Scores From Baseline, Mean” value ([3]; Week 10) was −47.7%, the “effect in patients having normal eosinophil levels compared to placebo or the total study population” value ([3]; in vivo) was “greater effect; also recorded: higher response rate” and the “change in BSA levels relative to baseline” value [3, 6] was “greater change”. The “change in DLQI levels relative to baseline” value [3, 6] was “greater change”, the “change in EASI scores relative to baseline” value [3, 6] was “greater change” and the “change in IGA scores relative to baseline” value [3, 6] was “greater change”. For the same molecule, the “change in POEM scores relative to baseline” value [3, 6] was “greater change”, the “change in SCORAD levels relative to baseline” value [3, 6] was “greater change” and the “change in VAS scores relative to baseline” value [3, 6] was “greater change”. For the same molecule, the IGA responder rate ([3]; patients having high eosinophil levels (greater than about 0.3×10^9/L)) was 0%, the “EASI scoring: patients classified as responders” value [3, 7] was 51% and the “IGA responders (IGA 0 or 1 at Week 8, 2-point decrease)” value [3, 7] was 42%. For the same molecule, the “Pruritus scores (VAS): patients classified as responders” value [3, 7] was 53%, the pruritus reduction [3, 7] was 53% and the “EASI (% decrease)” value [3, 8] was 51%. The “IGA responders (%)” value [3, 8] was 42%, the “Pruritus delta (as measured by VAS)” value [3, 8] was 53% and the “Pruritus score decrease (as measured by VAS)” value [3, 8] was “c. (2.0)”. The “SCORAD (% decrease)” value [3, 8] was 44%.
